The values that follow come from patent US20220409727A1, “Metal Complexes Bearing Bisstyryl-Bipyridine Ligand and Their Use as Photosensitizer Agent in One and Two-Photon Photodynamic Therapy” (Paris Sciences et Lettres, priority 2019, published 2022).

Molecules are shown by their SMILES. Read-outs that look alike come from different tables or passages of the source.

A short description of assay [1]: Singlet oxygen measurement, indirect evaluation (RNO absorbance). The format is physicochemical. Particulars: indirect. As for the experimental part:
For the measurement in CH3CN: The samples were prepared in an air-saturated CH3CN solution containing the complex with an absorbance of 0.2 at the irradiation wavelength, N,N-dimethyl-4-nitrosoaniline aniline (RNO, 24 μM) and imidazole (12 mM). For the measurement in PBS buffer: The samples were prepared in an air-saturated PBS solution containing the complex with an absorbance of 0.1 at the irradiation wavelength, N,N-dimethyl-4-nitrosoaniline aniline (RNO, 20 μM) and histidine (10 mM). The samples were irradiated on 96 well plates with an Atlas Photonics LUMOS BIO irradiator for different times. The absorbance of the samples was measured during these time intervals with a SpectraMax M2 Microplate Reader (Molecular Devices). The difference in absorbance (A0−A) at 420 nm for the CH3CN solution or at 440 nm a PBS buffer solution was calculated and plotted against the irradiation times. From the plot the slope of the linear regression was calculated as well as the absorbance correction factor determined. The singlet oxygen quantum yields were calculated using the same formulas as used for the direct evaluation.

Assay [2] relates to non-cancerous retinal pigment epithelium (RPE-1) cells. Description: (Photo-)cytotoxicity on 2D cell monolayers, resazurin assay, RPE-1.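 As to all read-outs here: cells exposed to compound 4 h, medium exchanged, then irradiated or kept dark, 44 h further growth, viability by resorufin fluorescence (ex 540 nm, em 590 nm).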 Particulars: for PI (480 nm): RPE-1, dark vs 480 nm (10 min, 3.1 J/cm^2); for PI (540 nm): RPE-1, dark vs 540 nm (40 min, 9.5 J/cm^2).
Method: The human glioblastoma astrocytoma (U373) cell line was cultured in MEM medium supplemented with 10% FBS, 1% NEAA (non-essential amino-acids) and 1% penicillin/streptomycin. […] The human retinal epithelial cells (RPE-1, non-cancerous cells immortalized with hTERT) were cultured in DMEM-F12 medium supplemented with 10% FBS and 1% penicillin/streptomycin. All cell lines were obtained from the American Type Culture Collection (ATCC) and cultured at 37° C. and 5% CO2. Before an experiment, the cells were passaged three times.
The cytotoxicity of the compounds was assessed by measuring cell viability using a fluorometric resazurin assay. The cultivated cells were seeded in triplicates in 96 well plates with a density of 4000 cells per well in 100 μL of media. After 24 h, the medium was removed and the cells were treated with increasing concentrations of the compound diluted in cell media achieving a total volume of 200 μL. The cells were incubated with the compound for 4 h. After this time, the media was removed and replaced with 200 μL of fresh medium. For the phototoxicity studies, the cells were exposed to light with an Atlas Photonics LUMOS BIO irradiator. Each well was constantly illuminated with either a 480 nm or 540 nm irradiation. During this time, the temperature was maintained constantly at 37° C. The cells were grown in the incubator for additional 44 h. For the determination of the dark cytotoxicity, the cells were not irradiated and after the medium exchange directly incubated for 44 h. After this time, the medium was replaced with fresh medium containing resazurin with a final concentration of 0.2 mg/mL. After 4 h incubation, the amount of the fluorescent product resorufin was determined upon excitation at 540 nm and measurement its emission at 590 nm using a SpectraMax M2 Microplate Reader (Molecular Devices).
The obtained data was analyzed with the GraphPad Prism software.
In assay [3] the test system is human glioblastoma astrocytoma (U373) cells.
Assay [4] has as its system human cervical carcinoma (HeLa) cells. Description: (Photo-)cytotoxicity on 2D cell monolayers, resazurin assay, HeLa. The format is cell-based. Particulars: for PI (480 nm): dark vs 480 nm (10 min, 3.1 J/cm^2); for PI (540 nm): dark vs 540 nm (40 min, 9.5 J/cm^2). The source says:
Before an experiment, the cells were passaged three times.

Assay [5] in a line: Singlet oxygen measurement, direct evaluation (1O2 luminescence at 1270 nm). It is filed as physicochemical. Here is the method: The samples were prepared in an air saturated CH3CN or D2O solution with an absorbance of 0.2 at 450 nm. This solution was irradiated in fluorescence quartz cuvettes (width 1 cm) using a mounted M450LP1 LED (Thorlabs) whose irradiation, centered at 450 nm, has been focused with aspheric condenser lenses. The intensity of the irradiation has been varied using a T-Cube LED Driver (Thorlabs) and measured with an optical power and energy meter. The emission signal was focused and collected at right angle to the excitation pathway and directed to a Princeton Instruments Acton SP-2300i monochromator. A longpass glass filter was placed in front of the monochromator entrance slit to cut off light at wavelengths shorter than 850 nm. As a detector an EO-817L IR-sensitive liquid nitrogen cooled germanium diode detector (North Coast Scientific Corp.) has been used. The singlet oxygen luminesce at 1270 nm was measured by recording spectra from 1100 to 1400 nm. For the data analysis, the singlet oxygen luminescence peaks at different irradiation intensities were integrated. The resulting areas were plotted against the percentage of the irradiation intensity and the slope of the linear regression calculated. The absorbance of the sample was corrected with an absorbance correction factor. As reference for the measurement Rose Bengal (Φ=76%) (Kochevar, I. E. and Redmond, R. W., 2000) was used and the singlet oxygen quantum yields were calculated using the following formula:
Φsample=Φreference*(Ssample/Sreference)*(Ireference/Isample)
Φ=singlet oxygen quantum yield, S=slope of the linear regression of the plot of the areas of the singlet oxygen luminescence peaks against the irradiation intensity, I=absorbance correction factor, […] of the irradiation source, A=absorbance of the sample at irradiation wavelength.

The test system of assay [6] is HeLa MCTS. Description: (Photo-)cytotoxicity on 3D multicellular tumor spheroids (ATP, CellTiter-Glo 3D). The format is cell-based, human. The conditions noted are these: for PI (1-Photon): dark vs 1-Photon irradiation (500 nm, 10 J/cm^2); for PI (2-Photon): dark vs 2-Photon irradiation (800 nm, 10 J/cm^2). Here is the method: autoclave. The hot emulsion was transferred into wells (50 μL per well) of a 96 cell culture well plate. The plates were exposed for 3 h to UV irradiation to ensure the sterility and allow the agarose solution to cool down. After this time, the agarose was overlayed with a HeLa cell suspension at a density of 3000 cells per well in 150 μL of media. The MCTS were cultivated and maintained at 37° C. in a cell culture incubator at 37° C. with 5% CO2 atmosphere. The culture media was replaced every two days. Within two-three days MCTs were formed from the cell suspension. The formation as well as integrity, diameter and volume of the MCTs was monitored by an Axio Observer Z1 (Carl Zeiss) phase contrast microscope. The volume was calculated using the following formula: V=4/3πr^3. The luminescence images along the z-axis were captured by a one-(λex=458 nm, λem=600-750 nm) or two-photon (λex=800 nm, λem=600-750 nm) excitation in the z-stack mode with a an LSM 880 (Carl Zeiss) laser scanning confocal microscope equipped with Argon and a Coherent Chameleon 2-Photon laser and a GaAsP detector.
The cytotoxicity of the compounds in 3D multicellular tumor spheroids (MCTS) was assessed by measurement of the ATP concentration. MCTS were treated with increasing concentrations of the compound (2% DMSO, v %) by replacing 50% of the media with drug supplemented media and incubation for 12 h. After this time, the MCTS were divided in three identical groups. The first group was strictly kept in the dark. The second group was exposed to a one-photon irradiation (500 nm, 10 J/cm^2) using a LED and the third group was exposed to a two-photon irradiation (800 nm, 10 J/cm^2) with a section interval of 5 μm using a LSM 880 (Carl Zeiss, Germany) laser scanning confocal microscope equipped with a Coherent Chameleon 2-Photon laser. After the irradiation, all groups were incubated additional 48 h. The ATP concertation was measured using a CellTiter-Glo 3D Cell Viability kit (Promega) by measuring the generated chemiluminescence with an infinite M200 PRO (Tecan) plate reader.

Assay [7] has as its system mouse colon carcinoma (CT-26) cells. Description: (Photo-)cytotoxicity on 2D cell monolayers, resazurin assay, CT-26. Particulars: for PI (480 nm): CT-26, dark vs 480 nm (10 min, 3.1 J/cm^2); for PI (540 nm): CT-26, dark vs 540 nm (40 min, 9.5 J/cm^2); for IC50: compounds 1-3 as chloride salts.
Where [8] appears, read: dark, 4 h incubation, compounds 1-3 as chloride salts, read-out: IC50 dark.
[9] abbreviates: read-out: IC50 480 nm (10 min, 3.1 J/cm^2), irradiation 480 nm (10 min, 3.1 J/cm^2), compounds 1-3 as chloride salts.
The mark [10] stands for this setting: read-out: IC50 540 nm (40 min, 9.5 J/cm^2), irradiation 540 nm (40 min, 9.5 J/cm^2), compounds 1-3 as chloride salts.
Setting [11] is: 1-Photon irradiation (500 nm, 10 J/cm^2), read-out: IC50 1-Photon irradiation (500 nm, 10 J/cm^2).
The mark [12] stands for this setting: 2-Photon irradiation (800 nm, 10 J/cm^2, section interval of 5 μm), read-out: IC50 2-Photon irradiation (800 nm, 10 J/cm^2).
Setting [13] is: dark, 12 h incubation, read-out: IC50 dark.
Setting [14] is: read-out: IC50 540 nm (40 min, 9.5 J/cm^2), CT-26, irradiation 540 nm (40 min, 9.5 J/cm^2).
Setting [15] is: read-out: IC50 dark, CT-26, dark, 4 h incubation.

On to `CN(C)c1ccc(/C=C/c2ccnc(-c3cc(/C=C/c4ccc(N(C)C)cc4)ccn3)c2)cc1.F[P-](F)(F)(F)(F)F.F[P-](F)(F)(F)(F)F.[Ru+2].c1ccc(-c2ccnc3c2ccc2c(-c4ccccc4)ccnc23)cc1.c1ccc(-c2ccnc3c2ccc2c(-c4ccccc4)ccnc23)cc1` [Compound 10, [Ru(4,7-Diphenyl-1,10-phenanthroline)2((E,E′)-4,4′-Bis[p-(N,N-dimethylamino)styryl]-2,2′-bipyridine)][PF6]2], for which the “Singlet oxygen quantum yield, indirect 450 nm CH3CN” value in assay [1] was 48%. Also, the “Singlet oxygen quantum yield, indirect 450 nm PBS” value in assay [1] came out at 2%. Also, in assay [1], the “Singlet oxygen quantum yield, indirect 540 nm CH3CN” value is 43%. In addition, in assay [1], the “Singlet oxygen quantum yield, indirect 540 nm PBS” value is on record as 2%. Further, the “PI (480 nm)” value in assay [2] is 8.7; in assay [4] it was 6.7; in assay [7], 4.0. Also, the results for the “PI (540 nm)” value in assay [2], in assay [4] and in assay [7] were 7.4, 6.3 and 4.7, respectively. The IC50 in assay [3] came out at 2.1 ± 0.4 µM; in assay [4] (setting [8]), 10.7 ± 1.4 µM; in assay [4] (setting [9]), 1.6 ± 0.3 µM; in assay [4] (setting [10]), 1.7 ± 0.4 µM; in assay [6] (setting [11]), 8.9 ± 0.7 µM; in assay [6] (setting [12]), 3.1 ± 0.6 µM. The IC50 worked out at 27.8 ± 3.6 µM in assay [6] (setting [13]), 1.1 ± 0.4 µM in assay [7] (setting [14]) and 5.2 ± 0.8 µM in assay [7] (setting [15]). In addition, the “Singlet oxygen quantum yield, direct 450 nm CH3CN” value in assay [5] turned out to be 51%. Further, in assay [6], the “PI (1-Photon)” value is 3.1. The “PI (2-Photon)” value in assay [6] turned out to be 9.0.
With `COc1ccc(/C=C/c2ccnc(-c3cc(/C=C/c4ccc(OC)cc4)ccn3)c2)cc1.COc1ccc(/C=C/c2ccnc(-c3cc(/C=C/c4ccc(OC)cc4)ccn3)c2)cc1.F[P-](F)(F)(F)(F)F.F[P-](F)(F)(F)(F)F.[Ru+2].c1ccc(-c2ccccn2)nc1` [Compound 5, [Ru(bipy)((E,E′)-4,4′-Bis[p-methoxystyryl]-2,2′-bipyridine)2][PF6]2], the “Singlet oxygen quantum yield, indirect 450 nm CH3CN” value in assay [1] came to 51%. Besides, the “Singlet oxygen quantum yield, indirect 450 nm PBS” value in assay [1] came to 8%. For the same compound, the “Singlet oxygen quantum yield, indirect 540 nm CH3CN” value in assay [1] is given as 46%. Moreover, the “Singlet oxygen quantum yield, indirect 540 nm PBS” value in assay [1] came to 6%. Also, the entries for the “PI (480 nm)” value in assay [2], in assay [4] and in assay [7] were above 9.8, above 16.7 and above 19.6, respectively. Moreover, the “PI (540 nm)” value is listed as above 7.9 in assay [2], above 12.7 in assay [4] and above 16.1 in assay [7]. For the same compound, the IC50 in assay [3] is 17.8 ± 3.2 µM; in assay [4] (setting [8]) it was above 100 µM; in assay [4] (setting [9]), 6.4 ± 1.7 µM; in assay [4] (setting [10]), 7.9 ± 1.3 µM; in assay [6] (setting [11]) it was 19.3 ± 2.7 µM; in assay [6] (setting [12]), 13.4 ± 3.9 µM. Further, the figures for the IC50 in assay [6] (setting [13]), in assay [7] (setting [14]) and in assay [7] (setting [15]) were above 100 µM, 6.2 ± 1 µM and above 100 µM, respectively. Moreover, in assay [5], the “Singlet oxygen quantum yield, direct 450 nm CH3CN” value was found to be 54%. In addition, the “PI (1-Photon)” value in assay [6] is listed as above 5.2. The “PI (2-Photon)” value in assay [6] is reported as above 7.5.
In the case of `CN(C)c1ccc(/C=C/c2ccnc(-c3cc(/C=C/c4ccc(N(C)C)cc4)ccn3)c2)cc1.CN(C)c1ccc(/C=C/c2ccnc(-c3cc(/C=C/c4ccc(N(C)C)cc4)ccn3)c2)cc1.F[P-](F)(F)(F)(F)F.F[P-](F)(F)(F)(F)F.[Ru+2].c1ccc(-c2ccccn2)nc1` [Compound 4, [Ru(bipy)((E,E′)-4,4′-Bis[p-(N,N-dimethylamino)styryl]-2,2′-bipyridine)2][PF6]2], the “Singlet oxygen quantum yield, indirect 450 nm CH3CN” value in assay [1] was 40%. For the same compound, the “Singlet oxygen quantum yield, indirect 450 nm PBS” value in assay [1] is 2%. Besides, the “Singlet oxygen quantum yield, indirect 540 nm CH3CN” value in assay [1] worked out at 37%. Further, the “Singlet oxygen quantum yield, indirect 540 nm PBS” value in assay [1] is given as 3%. Further, the “PI (480 nm)” value in assay [2] is recorded as above 9.2; in assay [4] it was above 11.8; in assay [7], above 13.7. Further, the entries for the “PI (540 nm)” value in assay [2], in assay [4] and in assay [7] were above 6.8, above 9.4 and above 10.4, respectively. Moreover, the IC50 is 19 ± 2.8 µM in assay [3]; above 100 µM in assay [4] (setting [8]); 8.5 ± 1.2 µM in assay [4] (setting [9]); 10.6 ± 2.2 µM in assay [4] (setting [10]); 78.3 ± 5.1 µM in assay [6] (setting [11]); 63 ± 4.2 µM in assay [6] (setting [12]). In addition, the figures for the IC50 in assay [6] (setting [13]), in assay [7] (setting [14]) and in assay [7] (setting [15]) were above 100 µM, 9.6 ± 1.9 µM and above 100 µM, respectively. Moreover, the “Singlet oxygen quantum yield, direct 450 nm CH3CN” value in assay [5] is 34%. Also, in assay [6], the “PI (1-Photon)” value is listed as above 1.3. Also, in assay [6], the “PI (2-Photon)” value is recorded as above 1.6.
